Assay results taken from publication PMC5571359, “Screening the Medicines for Malaria Venture Pathogen Box across Multiple Pathogens Reclassifies Starting Points for Open-Source Drug Discovery” (Antimicrobial Agents and Chemotherapy, 2017).
pEC50, pIC50: −log10 of the molar value. Where two headings read alike, the source gives them in different places.

Tests used:
[1] = tested on: L. infanium (macrophages); set-up: method as in Pbox supporting information; details: ref Pbox supporting information; cited from earlier work
T. brucei brucei = details: ref Pbox supporting information; read-out: T.b. brucei Pbox IC50; cited from earlier work
[2] = tested on: T. cruzi C4 β-galactosidase reporter parasite in MRC 5SV2 host cells; details: ref Pbox supporting information; read-out: T. cruzi Pbox IC50; cited from earlier work
T. brucei rhodesiense = details: ref Pbox supporting information; read-out: T .b. rohdensie Pbox IC50; cited from earlier work
barber's pole worm = tested on: barber's pole worm; set-up: method as in PMID 27524698; details: cited from earlier work
[3] = tested on: NF54-pfs16-LUC-GFP stage IV gametocytes; assay: Plasmodium falciparum late stage gametocyte (LSG) image-based assay; format: cell-based
[4] = tested on: T. cruzi intracellular amastigotes; assay: Intracellular anti-Trypanosoma cruzi image-based assay (amastigotes); format: cell-based; details: for pIC50: Trypanosoma cruzi
3T3 host cells = assay: T. cruzi assay, activity against 3T3 host cells; format: cell-based; details: reference compound set; IA = inactive at 16.4 μM
Outline: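 3T3 cells were seeded on collagen-coated plates, incubated 24 h at 37 °C, infected with T. cruzi at MOI 5:1, and washed free of extracellular parasites after a further 24 h. Following 48 h compound exposure, cells were fixed, stained with Hoechst 33342 and HCS CellMask Green, and imaged by high-content analysis.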

[5] = tested on: T. b. brucei 427 bloodstream trypanosomes; assay: T. b. brucei resazurin viability assay; format: cell-based, Trypanosoma brucei brucei; details: for pIC50: Trypanosoma brucei
in vitro = details: human
[6] = tested on: L. donovani MHOM/IN/80/DD8 intracellular amastigotes; assay: Leishmania donovani intracellular amastigote assay in THP-1 cells; format: cell-based; details: for pIC50 / IC50: Leishmania donovani; for pIC50: reference compound set, IA = inactive at 20 μM; for IC50: THP-1, intracellular amastigotes, read-out: L, donovani Discovery Biology IC50 µM
[7] = tested on: Plasmodium falciparum 3D7 asexual blood stage; assay: microbe, parasite or virus in culture
Kinase CDPK1 = target: Kinase CDPK1; set-up: method as in earlier work; details: ChEMBL Data; read-out: CROWTHER ref 101) Kinase CDPK1 IC50; cited from earlier work
P. falciparum ABS = details: cited from earlier work; for pEC50: ChEMBL Data, TCMDC, read-out: TCMDC (ref 93) EX50; for pIC50: Pf 3D7, ref Pathogen Box supporting information, read-out: Pf 3D7 Pbox IC50
[8] = tested on: Plasmodium cGMP-dependent protein kinase (PfPKG); set-up: method as in PMID 16325279, PMID 20643897; details: cited from earlier work
HepG2 = details: cited from earlier work; for CC50: read-out: HepG2 PBox CC50 µM, HepG2 CC50, ref Pathogen Box supporting information
[9] = tested on: P. falciparum stage V gametocytes; details: stage V gametocytes; ref Pathogen Box supporting information; read-out: PF stage V GAMS PBox IC50; cited from earlier work
liver stage = details: liver stage; ref Pathogen Box supporting information; read-out: LIVER STAGE Pbox IC50; cited from earlier work
[10] = tested on: Plasmodium falciparum 3D7 asexual blood stage
HEK293 cells [11] = assay: HEK293 resazurin cell cytotoxicity assay
[12] = tested on: L. infanium (macrophages); set-up: method as in Pathogen Box supporting information; details: ref Pathogen Box supporting information, read-out: L. infanium (macrophages) Pbox IC50; cited from earlier work
[13] = tested on: Candida albicans biofilm formation; set-up: method as in PMID 27795383; details: cited from earlier work
HEK293 cells [14] = tested on: HEK293 cells
[15] = intracellular amastigotes, Discovery Biology, read-out: T cruzi Discovery Biology IC50
[16] = Discovery Biology, some values carry an asterisk

Compound: CCc1nn(C)c(C(=O)NCc2ccc(Oc3ccc(C)cc3)cc2)c1Cl [MMV688934, Tolfenpyrad]
- pIC50 [1]: 4.34
- pIC50 (T. brucei brucei): 4.48
- pIC50 [2]: 5.27
- pIC50 (T. brucei rhodesiense): 4.69
- activity against the helminth barber's pole worm (barber's pole worm): activity

Compound: CO[C@H]1/C=C/O[C@@]2(C)Oc3c(C)c(O)c4c(O)c(c(/C=N/N5CCN(C)CC5)c(O)c4c3C2=O)NC(=O)/C(C)=C\C=C\[C@H](C)[C@H](O)[C@@H](C)[C@@H](O)[C@@H](C)[C@H](OC(C)=O)[C@@H]1C [Rifampin, reference compound]
- inhibition at 20 µM ([3]; Plasmodium falciparum, NF54, read-out: percent inhibition at the top screening dose, P. falciparum NF54 LSG): 78%
- pIC50 ([4]; reference compound set, IA = inactive at 16.4 μM, read-out: IC50 T. cruzi intracellular amastigotes): < 4.79
- pIC50 (3T3 host cells): < 4.79
- pIC50 ([5]; reference compound set, IA = inactive at 20 μM, read-out: IC50 T. brucei brucei trypomastigotes): < 4.70
- IC50 at 72 h (in vitro): > 20000 nM
- pIC50 ([6]; THP-1, read-out: IC50 L. donovani n = 1, first test): < 4.70
- pIC50 ([6]; THP-1, read-out: IC50 L. donovani n = 2, second test): < 4.70
- pIC50 ([7]; 3D7, read-out: IC50 P. falciparum 3D7 ABS): 5.65

Compound: Nc1ncc(-c2cn[nH]c2)cc1-c1nc2cc(Cl)cnc2[nH]1 [MMV023370]
- pIC50 (Kinase CDPK1): 6.55
- pEC50 (P. falciparum ABS): 6.04
- pIC50 (P. falciparum ABS): 6.40

Compound: CN1CCC(c2cc(-c3ccncc3)c(-c3ccc(F)cc3)[nH]2)CC1 [MMV688703]
- activity in the Discovery Biology stage IV gametocyte (LSG) assay [3]: does not affect
- pIC50 [8]: 8.07
- pIC50 ([7]; 3D7, read-out: Antiplasmodial IC50 (ABS), PBox compounds, P. falciparum 3D7): 5.50

Compound: CN(C(=O)c1cc2c(-c3cncnc3)cccc2[nH]1)c1ccccc1 [MMV024443]
- IC50 ([3]; Plasmodium falciparum, NF54, read-out: Pf Stage IV GAMS Discovery Biology IC50 µM, stage IV gametocytes, Discovery Biology): 2.71 µM
- pIC50 (Kinase CDPK1): 6.57
- CC50 (HepG2): > 10 µM
- pEC50 (P. falciparum ABS): 6.20
- pIC50 (P. falciparum ABS): 6.14
- pIC50 [9]: 6.24
- pIC50 (liver stage): 5.99
- IC50 ([7]; 3D7, read-out: Pf 3D7 Discovery Biology IC50 µM, P. falciparum 3D7 asexual blood stage, Discovery Biology): 1.69 µM

Compound: CC(c1cc(Cl)cc(Cl)c1)N(C)c1ncc2c(N)nc(N)nc2n1 (centres unmarked) [MMV689437]
- activity in the Discovery Biology ABS assay [10]: not active
- activity in the HEK293 cytotoxicity assay (HEK293 cells [11]): no activity
- activity against T. cruzi in the Discovery Biology assay [4]: demonstrated activity
- pIC50 [4, 15]: 6.72
- pIC50 [12]: 6.27
- activity against T. brucei brucei in the Discovery Biology assay [5]: not active
- activity against L. donovani in the Discovery Biology assay [6]: demonstrated activity
- IC50 [6, 16]: 5.73 µM

Compound: COc1ccc(Oc2ccc([C@@H](C)N(C)c3ncc4c(N)nc(N)nc4n3)cc2)cc1 [MMV690102]
- activity in the Discovery Biology ABS assay [10]: not active
- activity in the HEK293 cytotoxicity assay (HEK293 cells [11]): no activity
- activity against T. cruzi in the Discovery Biology assay [4]: demonstrated activity
- pIC50 [4, 15]: 7.05
- pIC50 [12]: 7.52
- activity against T. brucei brucei in the Discovery Biology assay [5]: not active
- activity against L. donovani in the Discovery Biology assay [6]: demonstrated activity
- IC50 [6, 16]: 0.46 µM

Compound: CC(C)(CN)c1nc(-c2ccc(Cl)c(O)c2)c(-c2ccnc(N)n2)[nH]1 [MMV030734]
- pIC50 (Kinase CDPK1): 8.15
- CC50 (HepG2): > 10 µM
- pEC50 (P. falciparum ABS): 6.01
- pIC50 (P. falciparum ABS): 6.39
- pIC50 (liver stage): 6.49

Compound: Cc1[nH]c2ccccc2c1C(c1cccs1)N1CCN(C)CC1 (centres unmarked) [MMV688768]
- pIC50 ([3]; Plasmodium falciparum, NF54, read-out: Antiplasmodial IC50 (GAM / LSG), PBox compounds, stage IV gametocytes, single determination): 5.33
- activity in the Discovery Biology ABS assay [10]: not ABS activity
- pIC50 (HEK293 cells [11]; Homo sapiens, HEK293, read-out: HEK % Inhibition 20uM/IC50 Discovery Biology (IA)): < 4.70
- activity against Candida albicans biofilm formation [13]: inhibitory activity
- HepG2 PBox CC20 μMc (HepG2; ref Pbox supporting information): 8500 nM
- selectivity index (SI) T. brucei brucei versus HEK293 ([5]; HEK293): > 13
- selectivity index (SI) T. brucei brucei versus HEPG2 ([5]; HEPG2 (PBox data)): > 6
- pIC50 ([5]; PBox compounds, read-out: IC50 T. brucei brucei (Discovery Biology)): 5.82
- IC50 ([6]; values marked *): 5.4 µM

Compound: C[C@H](c1ccc2c(c1)CCCC2)N(C)c1ncc2c(N)nc(N)nc2n1 [MMV690103]
- activity in the Discovery Biology ABS assay [10]: not active
- activity in the HEK293 cytotoxicity assay (HEK293 cells [11]): no activity
- activity against T. cruzi in the Discovery Biology assay [4]: demonstrated activity
- pIC50 [4, 15]: 7.00
- pIC50 [12]: 6.33
- activity against T. brucei brucei in the Discovery Biology assay [5]: not active
- activity against L. donovani in the Discovery Biology assay [6]: demonstrated activity
- IC50 [6, 16]: 5.2 µM

Compound: Cc1cc(C2=NOC(c3cc(Cl)c(F)c(Cl)c3)(C(F)(F)F)C2)ccc1C(=O)NCc1ccc2c(c1)C(C)(C)OB2O (centres unmarked) [MMV687776]
- HepG2 PBox CC20 μMc (HepG2): 10900 nM
- pIC50 (HepG2): 4.96
- activity in the HEK293 cytotoxicity assay (HEK293 cells [14]): did not display activity
- selectivity index (SI) T. cruzi versus HEK293 ([4]; HEK293): > 8
- selectivity index (SI) T. cruzi versus HEPG2 ([4]; HEPG2 (PBox data)): 4.3
- pIC50 ([4]; PBox compounds, intracellular amastigotes, 48 h exposure, read-out: IC50 T. cruzi (Discovery Biology)): 5.62
